Experiments:
[1] = target: T1, EGFR mutant T790M (Homo sapiens, UniProt P00533, T790M); assay: Kinase inhibition assay, EGFR mutant T790M; details: biochemical potency;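 note: truncated human EGFR mutant enzyme preincubated two hours with compound, then ATP plus ULight-PolyGT peptide for one hour, Europium-labeled antibody LANCE detection, IC50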
T1 construct: truncated human JAK3, EGFR mutants such as del E746-A750; purchased Carna Biosciences

[2] = target: T2, EGFR mutant Del19 (E746-A750) (Homo sapiens, UniProt P00533, DEL746-750); assay: Kinase inhibition assay, EGFR del E746-A750; format: biochemical; details: read-out: EGFR mutants Del19 (E746-A750);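 note: truncated human EGFR mutant kinase, two-hour preincubation with compound, then one-hour reaction with ATP and ULight-PolyGT peptide, LANCE Europium-antibody phosphorylation readout, IC50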
T2 construct: truncated human JAK3, EGFR mutants such as del E746-A750; purchased Carna Biosciences
T2 sequence (P00533 with tags, fused parts or gaps DEL746-750 limits assumed): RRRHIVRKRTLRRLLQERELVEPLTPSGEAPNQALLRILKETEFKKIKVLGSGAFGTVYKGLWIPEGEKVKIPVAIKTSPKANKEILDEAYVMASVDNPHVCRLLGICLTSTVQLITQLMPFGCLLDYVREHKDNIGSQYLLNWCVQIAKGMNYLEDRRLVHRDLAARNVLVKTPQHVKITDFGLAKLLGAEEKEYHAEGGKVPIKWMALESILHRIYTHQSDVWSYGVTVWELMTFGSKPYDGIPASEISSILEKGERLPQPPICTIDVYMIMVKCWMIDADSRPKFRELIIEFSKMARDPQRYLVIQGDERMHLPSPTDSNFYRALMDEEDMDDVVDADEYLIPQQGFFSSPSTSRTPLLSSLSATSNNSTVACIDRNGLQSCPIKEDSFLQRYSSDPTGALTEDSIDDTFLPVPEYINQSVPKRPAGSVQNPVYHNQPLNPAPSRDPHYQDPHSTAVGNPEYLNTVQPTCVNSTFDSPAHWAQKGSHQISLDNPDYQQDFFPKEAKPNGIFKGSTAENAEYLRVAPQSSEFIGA

[3] = target: T3, EGFR mutant L858R (Homo sapiens, UniProt P00533, L858R); assay: Kinase inhibition assay, EGFR L858R; format: biochemical; details: read-out: EGFR mutants L858R;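 note: truncated human EGFR L858R kinase with compound preincubation, ULight-PolyGT peptide phosphorylation read by Europium-antibody Lance detection, IC50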
T3 construct: truncated human JAK3, EGFR mutants such as del E746-A750; purchased Carna Biosciences
T3 sequence (P00533 669-1210 L858R limits assumed): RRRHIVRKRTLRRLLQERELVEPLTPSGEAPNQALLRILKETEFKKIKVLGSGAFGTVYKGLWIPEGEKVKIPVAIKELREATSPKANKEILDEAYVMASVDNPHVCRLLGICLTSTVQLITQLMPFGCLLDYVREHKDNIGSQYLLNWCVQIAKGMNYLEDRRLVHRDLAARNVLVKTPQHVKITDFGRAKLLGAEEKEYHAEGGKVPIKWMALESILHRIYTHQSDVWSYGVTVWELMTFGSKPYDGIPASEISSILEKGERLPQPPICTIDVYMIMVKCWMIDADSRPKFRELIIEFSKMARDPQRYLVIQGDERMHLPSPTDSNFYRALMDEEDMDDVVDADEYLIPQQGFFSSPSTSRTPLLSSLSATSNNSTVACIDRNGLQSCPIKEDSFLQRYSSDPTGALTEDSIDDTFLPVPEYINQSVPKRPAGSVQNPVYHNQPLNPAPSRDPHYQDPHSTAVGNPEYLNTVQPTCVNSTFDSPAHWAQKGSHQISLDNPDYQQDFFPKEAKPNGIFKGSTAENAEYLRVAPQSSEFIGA

[4] = target: T4, EGFR mutant L858R/T790M (Homo sapiens, UniProt P00533, L858R/T790M); assay: Kinase inhibition assay, EGFR L858R/T790M; format: biochemical; details: read-out: EGFR mutants L858R/T790M;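 note: truncated human enzyme preincubated two hours with compound, then one hour with one millimolar ATP and ULight-PolyGT peptide, Europium-labeled antibody detection, IC50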
T4 construct: truncated human JAK3, EGFR mutants such as del E746-A750; purchased Carna Biosciences
T4 sequence (P00533 669-1210 T790M/L858R limits assumed): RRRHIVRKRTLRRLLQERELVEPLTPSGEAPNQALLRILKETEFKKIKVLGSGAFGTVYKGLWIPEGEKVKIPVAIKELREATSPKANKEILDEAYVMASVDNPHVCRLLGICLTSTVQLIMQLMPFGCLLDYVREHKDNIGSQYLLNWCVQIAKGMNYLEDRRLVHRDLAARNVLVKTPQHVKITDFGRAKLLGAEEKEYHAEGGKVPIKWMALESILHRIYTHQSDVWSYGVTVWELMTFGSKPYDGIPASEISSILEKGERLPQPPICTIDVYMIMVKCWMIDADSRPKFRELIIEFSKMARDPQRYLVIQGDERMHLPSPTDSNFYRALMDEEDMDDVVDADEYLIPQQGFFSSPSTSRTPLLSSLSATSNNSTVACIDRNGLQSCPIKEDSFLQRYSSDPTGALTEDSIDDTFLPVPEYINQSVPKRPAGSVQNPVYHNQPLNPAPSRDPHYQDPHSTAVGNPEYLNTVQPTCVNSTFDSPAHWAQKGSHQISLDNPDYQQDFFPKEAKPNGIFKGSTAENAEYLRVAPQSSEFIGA

[5] = target: T5, EGFR mutant Del19/T790M (Homo sapiens, UniProt P00533, DEL746-750/T790M); assay: Kinase inhibition assay, EGFR del E746-A750/T790M; format: biochemical; details: read-out: EGFR mutants Del19/T790M
T5 construct: truncated human JAK3, EGFR mutants such as del E746-A750; purchased Carna Biosciences
T5 sequence (P00533 with tags, fused parts or gaps DEL746-750/T790M limits assumed): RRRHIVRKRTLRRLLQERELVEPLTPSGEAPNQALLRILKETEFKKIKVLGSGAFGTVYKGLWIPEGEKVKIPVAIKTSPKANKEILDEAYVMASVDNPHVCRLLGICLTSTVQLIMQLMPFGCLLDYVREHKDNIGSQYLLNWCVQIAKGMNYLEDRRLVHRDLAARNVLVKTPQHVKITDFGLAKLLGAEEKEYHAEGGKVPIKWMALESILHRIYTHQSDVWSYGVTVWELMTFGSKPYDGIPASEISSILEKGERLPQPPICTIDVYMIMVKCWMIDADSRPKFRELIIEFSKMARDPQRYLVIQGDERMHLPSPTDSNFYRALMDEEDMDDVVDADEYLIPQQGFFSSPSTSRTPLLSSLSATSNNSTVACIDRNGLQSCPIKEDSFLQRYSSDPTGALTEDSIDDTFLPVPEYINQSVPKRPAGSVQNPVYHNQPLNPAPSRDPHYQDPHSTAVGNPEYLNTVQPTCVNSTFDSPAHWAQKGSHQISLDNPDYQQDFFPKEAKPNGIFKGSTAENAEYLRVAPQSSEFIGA

[6] = target: T6, SYK (Homo sapiens, UniProt P43405); assay: Kinase inhibition assay, SYK; format: biochemical; details: biochemical potency;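 note: purified full-length human SYK pre-incubated 30 min with compound, then ULight-TK peptide phosphorylation for 1 h, detected with Europium-labeled antibody in Lance buffer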
T6 construct: Purified human, full-length SYK, KDR; purchased Carna Biosciences

T1 sequence (P00533 669-1210 T790M limits assumed): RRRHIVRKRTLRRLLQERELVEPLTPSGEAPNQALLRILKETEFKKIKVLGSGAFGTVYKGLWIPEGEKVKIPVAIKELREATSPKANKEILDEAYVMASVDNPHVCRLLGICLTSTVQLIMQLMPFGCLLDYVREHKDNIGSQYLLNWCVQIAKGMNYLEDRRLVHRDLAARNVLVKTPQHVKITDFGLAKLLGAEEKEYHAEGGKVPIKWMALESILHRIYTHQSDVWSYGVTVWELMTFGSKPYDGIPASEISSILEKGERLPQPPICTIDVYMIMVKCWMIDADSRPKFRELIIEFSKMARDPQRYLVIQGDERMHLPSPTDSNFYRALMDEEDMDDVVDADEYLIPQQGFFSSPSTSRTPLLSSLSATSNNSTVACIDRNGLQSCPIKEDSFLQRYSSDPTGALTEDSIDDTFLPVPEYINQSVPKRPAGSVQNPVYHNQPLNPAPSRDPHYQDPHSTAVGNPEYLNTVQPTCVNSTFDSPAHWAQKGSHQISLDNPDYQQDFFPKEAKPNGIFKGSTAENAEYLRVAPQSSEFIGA

Row | IC50 [1] | IC50 [2] | IC50 [3] | IC50 [4] | IC50 [5] | IC50 [6] | Compound
1 | < 20 nM | < 20 nM | < 20 nM | < 20 nM | < 20 nM | – | C=CC(=O)Nc1cc(Nc2nccc(-n3cc(CN(C)C)c(-c4cccnc4)n3)n2)c(OC)cc1N1CCOCC1 [Compound 128, N-(5-(4-(4-((dimethylamino)methyl)-3-(pyridin-3-yl)-1H-pyrazol-1-yl)pyrimidin-2-ylamino)-4-methoxy-2-morpholinophenyl)acrylamide]
2 | – | 20 to 200 nM | 201 to 1000 nM | 20 to 200 nM | 20 to 200 nM | > 1000 nM | C=CC(=O)Nc1cc(Nc2nccc(-n3cc(CN4CCC4)c(C)n3)n2)c(OC)cc1-c1ccccc1OC [Compound 68, N-(4-(4-(4-(azetidin-1-ylmethyl)-3-methyl-1H-pyrazol-1-yl)pyrimidin-2-ylamino)-2′,5-dimethoxybiphenyl-2-yl)acrylamide]
3 | < 20 nM | < 20 nM | < 20 nM | < 20 nM | < 20 nM | – | C=CC(=O)Nc1cc(Nc2nccc(-n3cc(CN(C)CC)c(C4CC4)n3)n2)c(OC)cc1N1CCN(C(C)=O)CC1 [Compound 137, N-(2-(4-acetylpiperazin-1-yl)-5-(4-(3-cyclopropyl-4-((ethyl(methyl)amino)methyl)-1H-pyrazol-1-yl)pyrimidin-2-ylamino)-4-methoxyphenyl)acrylamide]
4 | – | 20 to 200 nM | 20 to 200 nM | 20 to 200 nM | 20 to 200 nM | – | C=CC(=O)Nc1cc(Nc2nccc(-n3nc(C)c(CN4CCC4)c3C)n2)c(OC)cc1N1CCOCC1 [Compound 70, N-(5-(4-(4-(azetidin-1-ylmethyl)-3,5-dimethyl-1H-pyrazol-1-yl)pyrimidin-2-ylamino)-4-methoxy-2-morpholinophenyl)acrylamide]
5 | < 20 nM | < 20 nM | < 20 nM | < 20 nM | < 20 nM | – | C=CC(=O)Nc1cc(Nc2ncc(C)c(-n3cc(CN4CCC4)c(-c4ccccc4)n3)n2)c(OC)cc1N1CCOCC1 [Compound 121, N-(5-(4-(4-(azetidin-1-ylmethyl)-3-phenyl-1H-pyrazol-1-yl)-5-methylpyrimidin-2-ylamino)-4-methoxy-2-morpholinophenyl)acrylamide]
6 | < 20 nM | < 20 nM | < 20 nM | < 20 nM | < 20 nM | – | C=CC(=O)Nc1cc(Nc2ncc(C)c(-n3cc(CN4CCC4)c(C(C)C)n3)n2)c(OC)cc1N1CCOCC1 [Compound 125, N-(5-(4-(4-(azetidin-1-ylmethyl)-3-isopropyl-1H-pyrazol-1-yl)-5-methylpyrimidin-2-ylamino)-4-methoxy-2-morpholinophenyl)acrylamide]
7 | < 20 nM | < 20 nM | < 20 nM | < 20 nM | < 20 nM | – | C=CC(=O)Nc1cc(Nc2nccc(-n3cc(CN(C)C)c(C(C)C)n3)n2)c(OC)cc1N(C)CCOC [Compound 112, N-(5-(4-(4-((dimethylamino)methyl)-3-isopropyl-1H-pyrazol-1-yl)pyrimidin-2-ylamino)-4-methoxy-2-((2-methoxyethyl)(methyl)amino)phenyl)acrylamide]
8 | – | < 20 nM | 20 to 200 nM | < 20 nM | < 20 nM | > 1000 nM | C=CC(=O)Nc1cc(Nc2nccc(-n3cc(CN4CCCC4)c(-c4ccccc4)n3)n2)c(OC)cc1N1CCOCC1 [Compound 90, N-(4-methoxy-2-morpholino-5-(4-(3-phenyl-4-(pyrrolidin-1-ylmethyl)-1H-pyrazol-1-yl)pyrimidin-2-ylamino)phenyl)acrylamide]
9 | 201 to 1000 nM | 201 to 1000 nM | – | 201 to 1000 nM | 201 to 1000 nM | > 1000 nM | C=CC(=O)Nc1cc(Nc2ncc(C)c(-n3cc(CN(C)C4CN(C)C4)cn3)n2)c(OC)cc1N1CCOCC1 [Compound 23, N-(4-methoxy-5-(5-methyl-4-(4-((methyl(1-methylazetidin-3-yl)amino)methyl)-1H-pyrazol-1-yl)pyrimidin-2-ylamino)-2-morpholinophenyl)acrylamide]
10 | 20 to 200 nM | 20 to 200 nM | 20 to 200 nM | < 20 nM | < 20 nM | – | C=CC(=O)Nc1cc(Nc2nccc(-n3cc(CN(C)C)c(-c4cc(C)ccc4C)n3)n2)c(OC)cc1N1CCOCC1 [Compound 89, N-(5-(4-(4-((dimethylamino)methyl)-3-(2,5-dimethylphenyl)-1H-pyrazol-1-yl)pyrimidin-2-ylamino)-4-methoxy-2-morpholinophenyl)acrylamide]
11 | – | < 20 nM | 20 to 200 nM | 20 to 200 nM | < 20 nM | > 1000 nM | C=CC(=O)Nc1cc(Nc2nccc(-n3cc(CN4CCC4)c(C)n3)n2)c(OC)cc1N1CCC(F)(F)CC1 [Compound 69, N-(5-(4-(4-(azetidin-1-ylmethyl)-3-methyl-1H-pyrazol-1-yl)pyrimidin-2-ylamino)-2-(4,4-difluoropiperidin-1-yl)-4-methoxyphenyl)acrylamide]
12 | < 20 nM | < 20 nM | < 20 nM | < 20 nM | < 20 nM | – | C=CC(=O)Nc1cc(Nc2nccc(-n3cc(CN4CCC4)c(C(C)C)n3)n2)c(OC)cc1N(C)CCOC [Compound 113, N-(5-(4-(4-(azetidin-1-ylmethyl)-3-isopropyl-1H-pyrazol-1-yl)pyrimidin-2-ylamino)-4-methoxy-2-((2-methoxyethyl)(methyl)amino)phenyl)acrylamide]
13 | < 20 nM | < 20 nM | < 20 nM | < 20 nM | < 20 nM | – | C=CC(=O)Nc1cc(Nc2ncc(C)c(-n3cc(CN(C)C)c(C4CC4)n3)n2)c(OC)cc1N(C)C1COC1 [Compound 132, N-(5-(4-(3-cyclopropyl-4-((dimethylamino)methyl)-1H-pyrazol-1-yl)-5-methylpyrimidin-2-ylamino)-4-methoxy-2-(methyl(oxetan-3-yl)amino)phenyl)acrylamide]
14 | 20 to 200 nM | < 20 nM | < 20 nM | < 20 nM | < 20 nM | – | C=CC(=O)Nc1cc(Nc2nccc(-n3cc(CN(C)C)c(C(C)(C)C)n3)n2)c(OC)cc1N(CC)CCOC [Compound 126, N-(5-(4-(3-tert-butyl-4-((dimethylamino)methyl)-1H-pyrazol-1-yl)pyrimidin-2-ylamino)-2-(ethyl(2-methoxyethyl)amino)-4-methoxyphenyl)acrylamide]
15 | – | 201 to 1000 nM | 201 to 1000 nM | 201 to 1000 nM | 20 to 200 nM | > 1000 nM | C=CC(=O)Nc1cc(Nc2nccc(-n3cc(CN4CC[C@@H](N(C)C)C4)cn3)n2)c(OC)cc1N1CCOCC1 [Compound 39, (R)—N-(5-(4-(4-((3-(dimethylamino)pyrrolidin-1-yl)methyl)-1H-pyrazol-1-yl)pyrimidin-2-ylamino)-4-methoxy-2-morpholinophenyl)acrylamide]
16 | < 20 nM | < 20 nM | 20 to 200 nM | 20 to 200 nM | < 20 nM | – | C=CC(=O)Nc1cc(Nc2nccc(-n3ccc(-c4ccccc4)n3)n2)c(OC)cc1N1CCN(C)CC1 [Compound 85, N-(4-methoxy-2-(4-methylpiperazin-1-yl)-5-(4-(3-phenyl-1H-pyrazol-1-yl)pyrimidin-2-ylamino)phenyl)acrylamide]
17 | < 20 nM | < 20 nM | < 20 nM | < 20 nM | < 20 nM | – | C=CC(=O)Nc1cc(Nc2nccc(-n3cc(CN(C)C)c(-c4ccncc4)n3)n2)c(OC)cc1N1CCOCC1 [Compound 136, N-(5-(4-(4-((dimethylamino)methyl)-3-(pyridin-4-yl)-1H-pyrazol-1-yl)pyrimidin-2-ylamino)-4-methoxy-2-morpholinophenyl)acrylamide]
18 | – | < 20 nM | < 20 nM | < 20 nM | < 20 nM | 201 to 1000 nM | C=CC(=O)Nc1cc(Nc2ncc(F)c(-n3cc(C)c(CN4CCC4)c3)n2)c(OC)cc1N(C)C [Compound 142, N-(5-(4-(3-(azetidin-1-ylmethyl)-4-methyl-1H-pyrrol-1-yl)-5-fluoropyrimidin-2-ylamino)-2-(dimethylamino)-4-methoxyphenyl)acrylamide]
19 | < 20 nM | 20 to 200 nM | 20 to 200 nM | 20 to 200 nM | – | > 1000 nM | C=CC(=O)Nc1cc(Nc2ncc(F)c(-n3cc(CN4C[C@H](O)[C@H](OC)C4)c(C)n3)n2)c(OC)cc1N1CCOCC1 [Compound 61, N-(5-(5-fluoro-4-(4-(((3S,4R)-3-hydroxy-4-methoxypyrrolidin-1-yl)methyl)-3-methyl-1H-pyrazol-1-yl)pyrimidin-2-ylamino)-4-methoxy-2-morpholinophenyl)acrylamide]
20 | 20 to 200 nM | < 20 nM | < 20 nM | < 20 nM | < 20 nM | – | C=CC(=O)Nc1cc(Nc2nccc(-n3cc(CN(C)CC)c(C)n3)n2)c(OC)cc1N1CCOCC1 [Compound 145, N-(5-(4-(4-((ethyl(methyl)amino)methyl)-3-methyl-1H-pyrazol-1-yl)pyrimidin-2-ylamino)-4-methoxy-2-morpholinophenyl)acrylamide]
21 | 201 to 1000 nM | < 20 nM | 20 to 200 nM | 20 to 200 nM | < 20 nM | – | C=CC(=O)Nc1cc(Nc2nccc(-n3cc(CO)c(-c4ccccc4)n3)n2)c(OC)cc1N1CCOCC1 [Compound 91, N-(5-(4-(4-(hydroxymethyl)-3-phenyl-1H-pyrazol-1-yl)pyrimidin-2-ylamino)-4-methoxy-2-morpholinophenyl)acrylamide]

From patent USRE50528E1, “Compounds and compositions for modulating EGFR mutant kinase activities” (Yuhan Corporation, priority 2014, dated 2025)
